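Step 1: Grow cells in 96-well plates. Step 2: Expose to compound for 48 hours at 5 concentrations. Step 3: Interpolate endpoints linearly; if unreached, use highest concentration. GI50 is the concentration that inhibits growth by half. TGI is the concentration that stops growth completely.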
Assays:
Assay in all cases: NCI anticancer screen, dose series, 48 h
786-0 renal = tested on: 786-0 renal
A498 renal = tested on: A498 renal
A549 NSCLC = tested on: A549 NSCLC
ACHN renal = tested on: ACHN renal
BT-549 breast = tested on: BT-549 breast
CAKI-1 renal = tested on: CAKI-1 renal
CCRF-CEM leukemia = tested on: CCRF-CEM leukemia
COLO 205 colon = tested on: COLO 205 colon
DU-145 prostate = tested on: DU-145 prostate
EKVX NSCLC = tested on: EKVX NSCLC
HCC-2998 colon = tested on: HCC-2998 colon
HCT-116 colon = tested on: HCT-116 colon
HCT-15 colon = tested on: HCT-15 colon
HL-60(TB) leukemia = tested on: HL-60(TB) leukemia
HOP-62 NSCLC = tested on: HOP-62 NSCLC
HOP-92 NSCLC = tested on: HOP-92 NSCLC
HS 578T breast = tested on: HS 578T breast
HT29 colon = tested on: HT29 colon
IGROV1 ovarian = tested on: IGROV1 ovarian
K-562 leukemia = tested on: K-562 leukemia
KM12 colon = tested on: KM12 colon
LOX IMVI melanoma = tested on: LOX IMVI melanoma
M14 melanoma = tested on: M14 melanoma
MALME-3M melanoma = tested on: MALME-3M melanoma
MCF7 breast = tested on: MCF7 breast
MDA-MB-231 breast = tested on: MDA-MB-231 breast
MDA-MB-435 = tested on: MDA-MB-435
MOLT-4 leukemia = tested on: MOLT-4 leukemia
NCI-H226 lung = tested on: NCI-H226 lung
NCI-H23 lung = tested on: NCI-H23 lung
NCI-H460 lung = tested on: NCI-H460 lung
NCI-H522 lung = tested on: NCI-H522 lung
NCI/ADR-RES ovarian = tested on: NCI/ADR-RES ovarian
OVCAR-3 ovarian = tested on: OVCAR-3 ovarian
OVCAR-4 ovarian = tested on: OVCAR-4 ovarian
OVCAR-5 ovarian = tested on: OVCAR-5 ovarian
OVCAR-8 ovarian = tested on: OVCAR-8 ovarian
PC-3 prostate = tested on: PC-3 prostate
RPMI-8226 leukemia = tested on: RPMI-8226 leukemia
RXF 393 renal = tested on: RXF 393 renal
SF-268 CNS = tested on: SF-268 CNS
SF-295 CNS = tested on: SF-295 CNS
SF-539 CNS = tested on: SF-539 CNS
SK-MEL-2 melanoma = tested on: SK-MEL-2 melanoma
SK-MEL-28 melanoma = tested on: SK-MEL-28 melanoma
SK-MEL-5 melanoma = tested on: SK-MEL-5 melanoma
SK-OV-3 ovarian = tested on: SK-OV-3 ovarian
SN12C renal = tested on: SN12C renal
SNB-19 CNS = tested on: SNB-19 CNS
SNB-75 CNS = tested on: SNB-75 CNS
SR leukemia = tested on: SR leukemia
T-47D breast = tested on: T-47D breast
TK-10 renal = tested on: TK-10 renal
U251 CNS = tested on: U251 CNS
UACC-257 melanoma = tested on: UACC-257 melanoma
UACC-62 melanoma = tested on: UACC-62 melanoma
UO-31 renal = tested on: UO-31 renal
MDA-N = tested on: MDA-N
SW-620 colon = tested on: SW-620 colon

## Cc1cc2cc3cc(C)c(N)cc3[n+](C)c2cc1N
786-0 renal
  GI50: 2.6 µM
  TGI: 11.5 µM
A498 renal
  GI50: 2.54 µM
  TGI: 8.76 µM
A549 NSCLC
  GI50: 1 µM
  TGI: 10.9 µM
ACHN renal
  GI50: 1.95 µM
  TGI: 8.27 µM
BT-549 breast
  GI50: 2.34 µM
  TGI: 9.31 µM
CAKI-1 renal
  GI50: 3.44 µM
  TGI: 21.6 µM
CCRF-CEM leukemia
  GI50: 1.36 µM
  TGI: 17.5 µM
COLO 205 colon
  GI50: 1.15 µM
  TGI: 2.87 µM
DU-145 prostate
  GI50: 1.77 µM
  TGI: 9.64 µM
EKVX NSCLC
  GI50: 1.36 µM
  TGI: 14.1 µM
HCC-2998 colon
  GI50: 1.45 µM
  TGI: 4.26 µM
HCT-116 colon
  GI50: 1.15 µM
  TGI: 4.66 µM
HCT-15 colon
  GI50: 2.65 µM
  TGI: 11.7 µM
HL-60(TB) leukemia
  GI50: 2.31 µM
  TGI: 7.74 µM
HOP-62 NSCLC
  GI50: 0.518 µM
  TGI: 4.21 µM
HOP-92 NSCLC
  GI50: 1.44 µM
  TGI: 5.99 µM
HS 578T breast
  GI50: 1.12 µM
  TGI: 8.72 µM
HT29 colon
  GI50: 1.41 µM
  TGI: 6 µM
IGROV1 ovarian
  GI50: 2.66 µM
  TGI: 15.3 µM
K-562 leukemia
  GI50: 1.64 µM
  TGI: 9.47 µM
KM12 colon
  GI50: 1.1 µM
  TGI: 4.29 µM
LOX IMVI melanoma
  GI50: 1.35 µM
  TGI: 3.34 µM
M14 melanoma
  GI50: 1.8 µM
  TGI: 4.82 µM
MALME-3M melanoma
  GI50: 2.38 µM
  TGI: 6.86 µM
MCF7 breast
  GI50: 0.476 µM
  TGI: 6.08 µM
MDA-MB-231 breast
  GI50: 1.59 µM
  TGI: 8.39 µM
MDA-MB-435
  GI50: 2.21 µM
  TGI: 6.42 µM
MOLT-4 leukemia
  GI50: 2.58 µM
  TGI: 13.6 µM
NCI-H226 lung
  GI50: 1.17 µM
  TGI: 4.7 µM
NCI-H23 lung
  GI50: 1.09 µM
  TGI: 5.11 µM
NCI-H460 lung
  GI50: 1.01 µM
  TGI: 3.26 µM
NCI-H522 lung
  GI50: 3.24 µM
  TGI: 9.31 µM
NCI/ADR-RES ovarian
  GI50: 5.56 µM
  TGI: 23.4 µM
OVCAR-3 ovarian
  GI50: 1.55 µM
  TGI: 5.66 µM
OVCAR-4 ovarian
  GI50: 1.52 µM
  TGI: 8.78 µM
OVCAR-5 ovarian
  GI50: 3.94 µM
  TGI: 16 µM
OVCAR-8 ovarian
  GI50: 2.26 µM
  TGI: 5.88 µM
PC-3 prostate
  GI50: 1.7 µM
  TGI: 10.3 µM
RPMI-8226 leukemia
  GI50: 0.615 µM
  TGI: 4.57 µM
RXF 393 renal
  GI50: 0.584 µM
  TGI: 4.33 µM
SF-268 CNS
  GI50: 2.03 µM
  TGI: 6.98 µM
SF-295 CNS
  GI50: 1.56 µM
  TGI: 11.4 µM
SF-539 CNS
  GI50: 2.79 µM
  TGI: 7.75 µM
SK-MEL-2 melanoma
  GI50: 3.31 µM
  TGI: 8.1 µM
SK-MEL-28 melanoma
  GI50: 1.98 µM
  TGI: 4.63 µM
SK-MEL-5 melanoma
  GI50: 0.762 µM
  TGI: 2.08 µM
SK-OV-3 ovarian
  GI50: 2.09 µM
  TGI: 11 µM
SN12C renal
  GI50: 0.334 µM
  TGI: 10.2 µM
SNB-19 CNS
  GI50: 1.13 µM
  TGI: 12.4 µM
SNB-75 CNS
  GI50: 1.75 µM
  TGI: 14.4 µM
SR leukemia
  GI50: 1.99 µM
  TGI: 8.17 µM
T-47D breast
  GI50: 1.06 µM
  TGI: 5.44 µM
TK-10 renal
  GI50: 4.06 µM
  TGI: 12.7 µM
U251 CNS
  GI50: 0.339 µM
  TGI: 3.17 µM
UACC-257 melanoma
  GI50: 1.05 µM
  TGI: 7.5 µM
UACC-62 melanoma
  GI50: 1.41 µM
  TGI: 3.2 µM
UO-31 renal
  GI50: 2.16 µM
  TGI: 11.6 µM

## Cc1ccc2[nH]c3c(c2c1)CCC/C3=N/N=C(N)N
A498 renal
  TGI: 45.2 µM
ACHN renal
  TGI: 3.64 µM
BT-549 breast
  TGI: 41.1 µM
CAKI-1 renal
  TGI: 2.94 µM
COLO 205 colon
  TGI: 3.13 µM
DU-145 prostate
  TGI: 3.34 µM
EKVX NSCLC
  TGI: 6.78 µM
HCC-2998 colon
  TGI: 3.3 µM
HL-60(TB) leukemia
  TGI: > 100 µM
HOP-92 NSCLC
  TGI: 6.5 µM
HT29 colon
  TGI: 3.39 µM
IGROV1 ovarian
  TGI: 3.54 µM
K-562 leukemia
  TGI: 5 µM
KM12 colon
  TGI: 3.16 µM
LOX IMVI melanoma
  TGI: 4.39 µM
M14 melanoma
  TGI: 3.15 µM
MALME-3M melanoma
  TGI: 5.45 µM
MDA-MB-231 breast
  TGI: 3.04 µM
MDA-N
  TGI: 2.89 µM
NCI-H226 lung
  TGI: 10.1 µM
NCI-H23 lung
  TGI: 9.97 µM
NCI-H460 lung
  TGI: 2.89 µM
OVCAR-3 ovarian
  TGI: 8.21 µM
OVCAR-4 ovarian
  TGI: 11.4 µM
OVCAR-5 ovarian
  TGI: 5.53 µM
OVCAR-8 ovarian
  TGI: 4.49 µM
PC-3 prostate
  TGI: 10.2 µM
RPMI-8226 leukemia
  TGI: 5.12 µM
RXF 393 renal
  TGI: 3.95 µM
SK-MEL-2 melanoma
  TGI: 3.41 µM
SK-MEL-5 melanoma
  TGI: 3.4 µM
SK-OV-3 ovarian
  TGI: 38.3 µM
SN12C renal
  TGI: 3.05 µM
SNB-19 CNS
  TGI: 4.76 µM
SNB-75 CNS
  TGI: 4.54 µM
SR leukemia
  TGI: 5.64 µM
SW-620 colon
  TGI: > 100 µM
U251 CNS
  TGI: 4.72 µM
UACC-257 melanoma
  TGI: 7.41 µM
UACC-62 melanoma
  TGI: 4.73 µM

## N#C/C(C(=S)Nc1ccccc1)=C(/N)N1CCCC1
786-0 renal
  TGI: > 100 µM
A498 renal
  TGI: > 100 µM
A549 NSCLC
  TGI: > 100 µM
ACHN renal
  TGI: > 100 µM
CAKI-1 renal
  TGI: 92.5 µM
CCRF-CEM leukemia
  TGI: > 100 µM
COLO 205 colon
  TGI: > 100 µM
DU-145 prostate
  TGI: > 100 µM
EKVX NSCLC
  TGI: > 100 µM
HCC-2998 colon
  TGI: > 100 µM
HCT-116 colon
  TGI: > 100 µM
HCT-15 colon
  TGI: > 100 µM
HL-60(TB) leukemia
  TGI: > 100 µM
HOP-62 NSCLC
  TGI: > 100 µM
HOP-92 NSCLC
  TGI: > 100 µM
HS 578T breast
  TGI: > 100 µM
HT29 colon
  TGI: > 100 µM
IGROV1 ovarian
  TGI: > 100 µM
K-562 leukemia
  TGI: > 100 µM
KM12 colon
  TGI: > 100 µM
LOX IMVI melanoma
  TGI: > 100 µM
M14 melanoma
  TGI: > 100 µM
MALME-3M melanoma
  TGI: > 100 µM
MCF7 breast
  TGI: > 100 µM
MDA-MB-231 breast
  TGI: > 100 µM
MDA-MB-435
  TGI: > 100 µM
MDA-N
  TGI: > 100 µM
MOLT-4 leukemia
  TGI: > 100 µM
NCI-H226 lung
  TGI: > 100 µM
NCI-H23 lung
  TGI: > 100 µM
NCI-H460 lung
  TGI: > 100 µM
NCI-H522 lung
  TGI: > 100 µM
NCI/ADR-RES ovarian
  TGI: > 100 µM
OVCAR-3 ovarian
  TGI: > 100 µM
OVCAR-4 ovarian
  TGI: > 100 µM
OVCAR-5 ovarian
  TGI: > 100 µM
OVCAR-8 ovarian
  TGI: > 100 µM
PC-3 prostate
  TGI: > 100 µM
RPMI-8226 leukemia
  TGI: > 100 µM
RXF 393 renal
  TGI: > 100 µM
SF-268 CNS
  TGI: > 100 µM
SF-295 CNS
  TGI: > 100 µM
SF-539 CNS
  TGI: > 100 µM
SK-MEL-2 melanoma
  TGI: > 100 µM
SK-MEL-28 melanoma
  TGI: > 100 µM
SK-MEL-5 melanoma
  TGI: > 100 µM
SN12C renal
  TGI: > 100 µM
SNB-19 CNS
  TGI: > 100 µM
SR leukemia
  TGI: > 100 µM
SW-620 colon
  TGI: > 100 µM
TK-10 renal
  TGI: > 100 µM
U251 CNS
  TGI: > 100 µM
UACC-257 melanoma
  TGI: > 100 µM
UACC-62 melanoma
  TGI: > 100 µM
UO-31 renal
  TGI: > 100 µM

From PubChem BioAssay (NCI)
